Data reported in publication PMC7827417, “Steroid Glycosides Hyrcanoside and Deglucohyrcanoside: On Isolation, Structural Identification, and Anticancer Activity” (Foods, 2021).
Where two headings read alike, the source gives them in different places.

Columns and labels:
K562 = test: MTS cytotoxic assay, K562; format: cell-based; conditions: Homo sapiens
Source text: (§1) If not indicated otherwise, the cell lines were purchased from the American Type Culture Collection (ATCC). […] K562 is the erythroid-myeloid precursor cell line derived from chronic myeloid leukemia carrying the BCR-ABL hybrid gene. A549, MCF-7, PC-3, 5637, U-2 OS, and MiaPaCa-2 are cells derived from lung, breast, prostate, bladder carcinoma, osteosarcoma, and pancreatic adenocarcinoma, respectively. HEK 293T are transformed human embryonic kidney cells, and L929 (Sigma, St. Louis, MS, USA) are transformed mouse fibroblasts. HCT116, cells from colorectal carcinoma, and their p53 gene knock-out variant (HCT116p53-/-) were purchased from Horizon Discovery. This cell line is a model of human tumors bearing p53 loss-of-function mutations or biallelic deletion of the p53 gene, frequently associated with poor prognosis. The MRC-5 and BJ cells were used as noncancerous cells; more specifically, they are human fibroblasts from the lungs and foreskin, respectively. According to the supplier’s recommendations, all cells were cultured at 37 °C in a 5% CO2 atmosphere and 100% humidity. The culture media used were: DMEM, RPMI 1640, and MEM (according to a cell line); all were supplemented with 5 g L^−1 glucose, 10% fetal calf serum, 2 mM glutamine, 100 U mL^−1 penicillin, 100 µg mL^−1 streptomycin, and NaHCO3. Cells were passaged every two or three days using 0.25% trypsin plus 0.01% EDTA (ethylenediamine tetraacetic acid) in phosphate-buffered saline.
(§2) To evaluate compound cytotoxicity, cells were seeded in 384-well microtiter plates in a volume of […]. The next day, aliquots of the tested derivatives were transferred with Echo550 acoustic liquid handler (Labcyte) to obtain dose response curves with dilution factor 4. The experiments were performed in technical duplicates and three or more biological replicates. After 72 h of incubation in a humidified incubator, […] of the MTS/PMS stock solution were pipetted into each well. After another 1–4 h of incubation, the absorbance at 490 nm was measured using an EnVision Multilabel Plate Reader (PerkinElmer).

HCT116 = test: MTS cytotoxic assay, HCT116; format: cell-based; conditions: Homo sapiens
Source text: as §1, §2

HCT116p53-/- = test: MTS cytotoxic assay, HCT116p53-/-; format: cell-based; conditions: Homo sapiens, 72 h
Source text: as §1, §2

MiaPaCa-2 = test: MTS cytotoxic assay, MiaPaCa-2; format: cell-based; conditions: Homo sapiens
Source text: as §1, §2

MCF-7 = test: MTS cytotoxic assay, MCF-7; format: cell-based; conditions: Homo sapiens
Source text: as §1, §2

5637 = test: MTS cytotoxic assay, 5637; format: cell-based; conditions: Homo sapiens, 72 h
Source text: as §1, §2

HEK 293T = test: MTS cytotoxic assay, HEK 293T; format: cell-based; conditions: Homo sapiens, 72 h
Source text: as §1, §2

MRC-5 = test: MTS cytotoxic assay, MRC-5; format: cell-based; conditions: Homo sapiens
Source text: as §1, §2

mouse peritoneal cells = test: Viability of mouse peritoneal primary cells (macrophages), WST-1; format: cell-based; conditions: 24 h; for IC50: Mus musculus, Macrophage, WST-1, lowest tested concentration 1 nM, read-out: concentration at which IC50 was reached in mouse macrophages
Experimental: Female mice of the inbred strain C57BL/6, eight to ten weeks old, were purchased from Charles River Deutschland (Sulzfeld, Germany). They were kept in transparent plastic cages in groups of ten. The animals were housed with food and water ad libitum, lighting was set on 6–18 h, and the temperature was set at 22 °C. All protocols were approved by the institutional ethics committee (MSMT15894/2013-310). Animals, killed by cervical dislocation, were intraperitoneally injected with 8 mL of sterile saline. Pooled peritoneal cells collected from mice were washed in sterile saline, re-suspended in the culture medium, and seeded into 96-well microplates in final 100-μL volumes (Costar, Cambridge, MA, USA). The final density of the cells was 0.25 × 10^6 per mL^−1. The cultures were maintained with or without compounds for 24 h at 37 °C with 5% CO2 in a humidified Heraeus incubator in complete RPMI-1640 (Merck-Sigma, St. Louis, MS, USA), which contained 10% heat-inactivated fetal bovine serum, 2 mM of L-glutamine, 50 μg·mL^−1 of gentamicin, and 5 × 10^−5 M of 2-mercaptoethanol (all Merck-Sigma, St. Louis, MS, USA). Compounds (Ob, Cy (cymarin), Hyr, deHyr) were prepared as 100 mM stock solutions in dimethyl sulfoxide (DMSO) with cell culture grade. The next dilution continued immediately before the experiment with the culture medium. To eliminate the influence of DMSO, equal levels of DMSO were added to the experimental groups.
The viability of mouse peritoneal cells was determined using a colorimetric assay based on the cleavage of the tetrazolium salt WST-1 by mitochondrial dehydrogenases in viable cells (Merck-Sigma, St. Louis, MS, USA). The cells were cultured as described above. After 24 h of culture, the WST-1 was added, and the cells were kept in the Heraeus incubator at 37 °C for an additional 3 h. Optical density at 450/690 nm was determined. The cytotoxicity of the tested CGs was expressed as a percentage. The test samples were related to control samples consisting of untreated cells and samples with 100% dead cells evoked by 1% Triton, according to the formula: ((exp. value − control value)/(Triton value − control value)) × 100. All control and experimental variants were run in quadruplicates. The data were analyzed using GraphPad Prism software 6.05 (GraphPad, San Diego, CA, USA). Values were expressed as the mean ± standard error of the mean (SEM).

CCRF-CEM cells = test: BrU incorporation analysis (RNA synthesis); format: cell-based, human; conditions: % of positive cells
Experimental: The cells were cultured and processed as described above. Before harvesting, the cells were pulse-labeled with 1 mM of 5-bromouridine (BrU) for 30 min. The cells were then fixed in 1% buffered paraformaldehyde with 0.05% NP-40 at room temperature for 15 min, and then stored at 4 °C overnight. Before measurement, they were washed with 1% glycine in PBS, washed again with PBS, and stained with primary anti-BrdU antibody cross-reactive to BrU (Exbio) for 30 min at room temperature in the dark. From this point on, the experiment was performed exactly as in the method described above.

[1] = WST-1, 0.001–100.0 µM, not dose-dependent

C[C@]12CC[C@H]3[C@@H](CCC4=C[C@@H](O[C@@H]5OC[C@@H](O[C@@H]6O[C@H](CO)[C@@H](O)[C@H](O)[C@H]6O)[C@H](O)[C@H]5O)CC[C@@]43C=O)[C@@]1(O)CC[C@@H]2C1=CC(=O)OC1 [Hyr, (3β)-3-[(4-O-β-D-glucopyranosyl-β-D-xylopyranosyl)oxy]-14-hydroxy-19-oxocarda-4,20(22)-dienolide]
IC50 (K562; K562, 72 h): 800 ± 52 nM | IC50 (HCT116; HCT-116, 72 h): 670 ± 37 nM | IC50 (HCT116p53-/-): 730 ± 98 nM | IC50 (MiaPaCa-2; MIA PaCa-2, 72 h): 491 ± 23 nM | IC50 (MCF-7; MCF7, 72 h): 566 ± 29 nM | IC50 5637: 1510 ± 51 nM | IC50 (HEK 293T; HEK-293T): 383 ± 8.9 nM | IC50 (MRC-5; MRC5, 72 h): 302 ± 43 nM | cytotoxicity to mouse macrophages, % of the control (mouse peritoneal cells; [1]): about 60% | IC50 (mouse peritoneal cells): ~100 nM | BrU (CCRF-CEM cells; 1 × IC50, 24 h): 28.80% | BrU (CCRF-CEM cells; 5 × IC50, 24 h): 3.82%

CO[C@H]1C[C@H](O[C@H]2CC[C@]3(C=O)[C@H]4CC[C@]5(C)[C@@H](C6=CC(=O)OC6)CC[C@]5(O)[C@@H]4CC[C@]3(O)C2)O[C@H](C)[C@H]1O [Cy, cymarin]
IC50 (K562; K562, 72 h): 25 ± 4.5 nM | IC50 (HCT116; HCT-116, 72 h): 21 ± 2.5 nM | IC50 (HCT116p53-/-): 19 ± 3.8 nM | IC50 (MiaPaCa-2; MIA PaCa-2, 72 h): 44 ± 8.6 nM | IC50 (MCF-7; MCF7, 72 h): 29 ± 8.1 nM | IC50 5637: 89 ± 5.5 nM | IC50 (HEK 293T; HEK-293T): 3.02 ± 1.4 nM | IC50 (MRC-5; MRC5, 72 h): 26 ± 2.4 nM | cytotoxicity to mouse macrophages, % of the control (mouse peritoneal cells; [1]): about 60% | IC50 (mouse peritoneal cells): ≤ 1 nM | BrU (CCRF-CEM cells; 1 × IC50, 24 h): 35.63% | BrU (CCRF-CEM cells; 5 × IC50, 24 h): 27.52%

C[C@@H]1O[C@@H](O[C@H]2C[C@@H](O)[C@]3(CO)[C@H]4[C@H](O)C[C@]5(C)[C@@H](C6=CC(=O)OC6)CC[C@]5(O)[C@@H]4CC[C@]3(O)C2)[C@H](O)[C@H](O)[C@H]1O [Ob, ouabain]
IC50 (K562; K562, MTS, 72 h, read-out: IC50): 57 ± 6.2 nM | IC50 (HCT116; HCT-116, HCT116, MTS, 72 h, read-out: IC50): 30 ± 3.6 nM | IC50 (HCT116p53-/-; HCT116p53-/-, MTS, read-out: IC50): 28 ± 7.6 nM | IC50 (MiaPaCa-2; MIA PaCa-2, MiaPaCa-2, MTS, 72 h, read-out: IC50): 49 ± 2.01 nM | IC50 (MCF-7; MCF7, MCF-7, MTS, 72 h, read-out: IC50): 52 ± 5.6 nM | IC50 (5637; 5637, MTS, read-out: IC50): 110 ± 11 nM | IC50 (HEK 293T; HEK 293T, MTS, read-out: IC50): 35 ± 1.2 nM | IC50 (MRC-5; MRC5, MRC-5 noncancerous lung fibroblasts, MTS, 72 h, read-out: IC50): 39 ± 1.6 nM | decrease of viability of mouse macrophages compared to the control (mouse peritoneal cells; WST-1, independent of concentration 1 nm–100 µM): 10–20% | cytotoxicity to mouse macrophages (in words) (mouse peritoneal cells; up to 100 µM concentration): did not exhibit significant cytotoxicity | BrU (CCRF-CEM cells; 1 × IC50, 24 h): 39.77% | BrU (CCRF-CEM cells; 5 × IC50, 24 h): 6.56%

C[C@]12CC[C@H]3[C@@H](CCC4=C[C@@H](O[C@@H]5OC[C@@H](O)[C@H](O)[C@H]5O)CC[C@@]43C=O)[C@@]1(O)CC[C@@H]2C1=CC(=O)OC1 [deHyr, deglucohyrcanoside]
IC50 (K562; K562, 72 h): 130 ± 21 nM | IC50 (HCT116; HCT-116, 72 h): 140 ± 16 nM | IC50 (HCT116p53-/-): 130 ± 23 nM | IC50 (MiaPaCa-2; MIA PaCa-2, 72 h): 120 ± 5.2 nM | IC50 (MCF-7; MCF7, 72 h): 119 ± 6.4 nM | IC50 5637: 398 ± 46 nM | IC50 (HEK 293T; HEK-293T): 38 ± 0.97 nM | IC50 (MRC-5; MRC5, 72 h): 77 ± 12 nM | viability of mouse macrophages reduced to % of the control (mouse peritoneal cells; [1]): 50% | IC50 (mouse peritoneal cells): ~10 nM | BrU (CCRF-CEM cells; 1 × IC50, 24 h): 38.91% | BrU (CCRF-CEM cells; 5 × IC50, 24 h): 12.17%
